{"source": "patent US6720346B2", "about": "“Thiazole benzamide derivatives and pharmaceutical compositions for inhibiting cell proliferation” (Agouron Pharmaceuticals, Inc., priority 2001, dated 2004)", "key": {"HCT-116 cell line": {"test_system": "HCT-116 cell line", "test": "Inhibition of cell growth, MTT tetrazolium salt assay", "format": "cell-based", "settings": "Homo sapiens, HCT-116, 120 h, MTT, three to five days; for IC90: 90% inhibition of growth", "procedure,_shortened": "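HCT-116 cells in McCoy's 5A were dosed 4 h after plating with compounds in 0.5% DMSO and grown 3–5 days at 37 °C. Then 0.2 mg/mL MTT was added for 4 h and formazan absorbance read at 540 nm. IC50/IC90 came from semi-log plots against DMSO-only controls.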"}, "CDK2/cyclin A": {"target": "T1, CDK2/cyclin A (Homo sapiens, UniProt P24941)", "T1 construct": "made in house; host or cells: CDK2: insect cells (baculovirus); cyclin A: E. coli", "test": "Inhibition of CDK2/cyclin A retinoblastoma kinase activity (Ki; % inhibition)", "format": "biochemical", "settings": "apparent Ki, CDK2/cyclin A, Rb substrate", "procedure,_shortened": "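Radiometric filter assay of CDK2/proteolyzed cyclin A (baculovirus-expressed human CDK2, 10 or 19 nM) phosphorylating an Rb fragment with 25 μM [³²P/³³P]ATP in pH 7.4 HEPES, 2% DMSO, at 30 °C for 60 or 75 min under initial-rate conditions. Library compounds screened at 30 nM for % inhibition; apparent Ki from concentration series fit to competitive or tight-binding inhibition equations.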"}, "[1]": {"target": "T2, Phosphorylated FGF receptor kinase (FGFR1 cytosolic domain) (Homo sapiens, UniProt P11362, C488A/C584S/L457V)", "T2 construct": "FGFR1 tyrosine kinase (amino acids 456-766); made in house; host or cells: Sf9 insect cells (baculovirus)", "T2 sequence (P11362 456-766 L457V/C488A/C584S)": "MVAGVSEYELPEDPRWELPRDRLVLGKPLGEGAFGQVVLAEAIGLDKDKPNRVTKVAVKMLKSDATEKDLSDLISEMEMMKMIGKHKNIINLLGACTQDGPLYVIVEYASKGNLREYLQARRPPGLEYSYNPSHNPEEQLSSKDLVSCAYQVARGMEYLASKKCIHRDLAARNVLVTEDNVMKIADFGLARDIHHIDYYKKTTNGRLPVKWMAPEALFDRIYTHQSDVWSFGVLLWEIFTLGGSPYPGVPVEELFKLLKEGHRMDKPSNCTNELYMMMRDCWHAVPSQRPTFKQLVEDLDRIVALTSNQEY", "test": "Inhibition of phosphorylated FGF receptor tyrosine kinase activity (coupled spectrophotometric assay)", "format": "biochemical", "settings": "read-out: P-FGF % Inhibition at 1 μM", "protocol": "Cloning, expression and purification of the cytosolic domain of FGFR1 tyrosine kinase (amino acids 456-766) containing three amino acid substitutions (L457V, C488A, and C584S) were conducted as previously described (Mohammadi, M., Schiessinger, J., & Hubbard, S. R. Cell, 86, (1996) 577-587). This domain was expressed in Sf9 insect cells using a baculovirus expression vector, and protein was purified using conventional techniques. The LCK tyrosine kinase was expressed in insect cells as an N-terminal deletion starting from amino acid 223 to the end of the protein at amino acid 509. The N-terminus of the protein also had two amino acid substitutions, P223M and C224D. Kinases were purified using conventional chromatographic methods.\nTyrosine kinase activity was measured using a coupled, continuous spectrophotometric assay, in which production of phosphorylated poly(Glu,Tyr; 4:1) substrate and ADP is coupled to the pyruvate kinase-catalyzed transfer of a phosphate from phosphoenolpyruvate to ADP, with generation of pyruvate and regeneration of ATP. Pyruvate production is in turn coupled to the lactate dehydrogenase-catalyzed reduction of pyruvate to form lactate, with concomitant conversion of NADH to NAD^+. Loss of NADH is monitored by measuring absorbance at 340 nm (see e.g., Technikova-Dobrova et al., “Spectrophotometric Determination of Functional Characteristics of Protein Kinases with Coupled Enzymatic Assay,” FEBS Letters, 292 (1991), pp. 69-72). Enzyme activity was measured in the presence of 200 mM HEPES (pH 7.5), 2 mM phosphoenolpyruvate, 0.3 mM NADH, 20 mM MgCl2, 100 μM ATP, 5 mM DTT, 5.1 or 25 mM poly (Glu,Tyr) 4:1 for P-FGF or P-LCK assays, respectively, and 15 units/mL each of pyruvate kinase and lactate dehydrogenase. Phosphorylated FGF receptor kinase was present at 100 nM and phosphorylated LCK kinase was present at 50 nM. Assays were performed under initial rate conditions at 37° C., and rates were corrected for any background rate measured in the absence of enzyme. Percent inhibition was calculated relative to control enzyme assayed in the presence of 2% (v/v) DMSO."}}, "note": "Counter-ions that a name gives are not always drawn."}
{"smiles": "Nc1nc(Nc2ccc(C(=O)NCCc3ccc(O)cc3)cc2)sc1C(=O)c1c(F)cccc1F", "note": "[Example A14, 4-[4-Amino-5-(2,6-difluoro-benzoyl)-thiazol-2-ylamino]-N-[2-(4-hydroxy-phenyl)-ethyl]-benzamide]", "values": [{"measurement": "IC50", "setting": "HCT-116 cell line", "value": 42, "unit": "nM"}, {"measurement": "Ki", "setting": "CDK2/cyclin A", "value": 60, "unit": "nM"}, {"measurement": "inhibition at 1 µM", "setting": "[1]", "value": 0, "unit": "%"}]}
{"smiles": "Nc1nc(Nc2ccc(C(=O)NCCN3CCCCC3)cc2)sc1C(=O)c1c(F)cccc1F", "note": "[Example A15, 4-[4-Amino-5-(2,6-difluoro-benzoyl)-thiazol-2-ylamino]-N-(2-piperidin-1-yl-ethyl)-benzamide]", "values": [{"measurement": "IC50", "setting": "HCT-116 cell line", "value": 90, "unit": "nM"}, {"measurement": "Ki", "setting": "CDK2/cyclin A", "value": 150, "unit": "nM"}, {"measurement": "inhibition at 1 µM", "setting": "[1]", "value": 0, "unit": "%"}]}
{"smiles": "CC(CN(C)C)NC(=O)c1ccc(Nc2nc(N)c(C(=O)c3c(F)cccc3F)s2)cc1", "note": "(centres unmarked) [Example A20, 4-[4-Amino-5-(2,6-difluoro-benzoyl)-thiazol-2-ylamino]-N-(2-dimethylamino-1RS-methyl-ethyl)-benzamide Hydrochloride Salt]", "values": [{"measurement": "IC50", "setting": "HCT-116 cell line", "value": 76, "unit": "nM"}, {"measurement": "IC90", "setting": "HCT-116 cell line", "value": 180, "unit": "nM"}, {"measurement": "Ki", "setting": "CDK2/cyclin A", "value": 162, "unit": "nM"}, {"measurement": "inhibition at 1 µM", "setting": "[1]", "value": 0, "unit": "%"}]}
{"smiles": "Nc1nc(Nc2ccc(C(=O)Nc3ccc(N4CCOCC4)cc3)cc2)sc1C(=O)c1c(F)cccc1F", "note": "[Example A21]", "values": [{"measurement": "IC50", "setting": "HCT-116 cell line", "value": 100, "unit": "nM"}, {"measurement": "Ki", "setting": "CDK2/cyclin A", "value": 105, "unit": "nM"}, {"measurement": "inhibition at 1 µM", "setting": "[1]", "value": 0, "unit": "%"}]}
{"smiles": "CN1CCC[C@H]1CNC(=O)c1ccc(Nc2nc(N)c(C(=O)c3c(F)cccc3F)s2)cc1", "note": "[Example A31, 4-[4-Amino-5-(2,6-difluoro-benzoyl)-thiazol-2-ylamino]-N-(1-methyl-pyrrolidin-2S-yl-methyl)-benzamide Dihydrochloride]", "values": [{"measurement": "IC50", "setting": "HCT-116 cell line", "value": 30, "unit": "nM"}, {"measurement": "IC90", "setting": "HCT-116 cell line", "value": 70, "unit": "nM"}, {"measurement": "Ki", "setting": "CDK2/cyclin A", "value": 49, "unit": "nM"}, {"measurement": "inhibition at 1 µM", "setting": "[1]", "value": 0, "unit": "%"}]}
